Assay results reported in the supplement of paper PMC10307832.

Columns and labels:
Experiment in all cases: relative viability (nuclei count vs DMSO), 5 days (fraction); higher = more cells survive
JZL-184 + Pictilisib = compound: C1CN(CCC1C(C2=CC3=C(C=C2)OCO3)(C4=CC5=C(C=C4)OCO5)O)C(=O)OC6=CC=C(C=C6)[N+](=O)[O-] [JZL-184] + CS(=O)(=O)N1CCN(Cc2cc3nc(-c4cccc5[nH]ncc45)nc(N4CCOCC4)c3s2)CC1 [Pictilisib] (partner 1 µM)
Outline: (§1)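 Relative viability is defined as nuclei in treated wells over nuclei in vehicle wells. Duplicate plates were run and medians reported. Lung cancer cell lines in 1536-well plates were dosed by pin tool one day after seeding, with one drug or with a fixed anchor-drug dose plus five library-drug doses (not always all listed) in √10 steps, and nuclei were counted after 5 days.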

JZL-184 + Lapatinib = compound: C1CN(CCC1C(C2=CC3=C(C=C2)OCO3)(C4=CC5=C(C=C4)OCO5)O)C(=O)OC6=CC=C(C=C6)[N+](=O)[O-] [JZL-184] + CS(=O)(=O)CCNCc1ccc(-c2ccc3ncnc(Nc4ccc(OCc5cccc(F)c5)c(Cl)c4)c3c2)o1 [Lapatinib] (partner 2 µM)
Outline: as §1

JZL-184 + Foretinib = compound: C1CN(CCC1C(C2=CC3=C(C=C2)OCO3)(C4=CC5=C(C=C4)OCO5)O)C(=O)OC6=CC=C(C=C6)[N+](=O)[O-] [JZL-184] + COc1cc2c(Oc3ccc(NC(=O)C4(C(=O)Nc5ccc(F)cc5)CC4)cc3F)ccnc2cc1OCCCN1CCOCC1 [Foretinib] (partner 0.25 µM)
Outline: as §1

JZL-184 + Bortezomib = compound: C1CN(CCC1C(C2=CC3=C(C=C2)OCO3)(C4=CC5=C(C=C4)OCO5)O)C(=O)OC6=CC=C(C=C6)[N+](=O)[O-] [JZL-184] + CC(C)C[C@H](NC(=O)[C@H](Cc1ccccc1)NC(=O)c1cnccn1)B(O)O [Bortezomib] (partner 0.002 µM)
Outline: as §1

JZL-184 + Linsitinib = compound: C1CN(CCC1C(C2=CC3=C(C=C2)OCO3)(C4=CC5=C(C=C4)OCO5)O)C(=O)OC6=CC=C(C=C6)[N+](=O)[O-] [JZL-184] + C[C@]1(O)C[C@@H](c2nc(-c3ccc4ccc(-c5ccccc5)nc4c3)c3c(N)nccn32)C1 [Linsitinib] (partner 1 µM)
Outline: as §1

JZL-184 + Olaparib = compound: C1CN(CCC1C(C2=CC3=C(C=C2)OCO3)(C4=CC5=C(C=C4)OCO5)O)C(=O)OC6=CC=C(C=C6)[N+](=O)[O-] [JZL-184] + O=C(c1cc(Cc2n[nH]c(=O)c3ccccc23)ccc1F)N1CCN(C(=O)C2CC2)CC1 [Olaparib] (partner 8 µM)
Outline: as §1

JZL-184 + Navitoclax = compound: C1CN(CCC1C(C2=CC3=C(C=C2)OCO3)(C4=CC5=C(C=C4)OCO5)O)C(=O)OC6=CC=C(C=C6)[N+](=O)[O-] [JZL-184] + CC1(C)CCC(c2ccc(Cl)cc2)=C(CN2CCN(c3ccc(C(=O)NS(=O)(=O)c4ccc(N[C@H](CCN5CCOCC5)CSc5ccccc5)c(S(=O)(=O)C(F)(F)F)c4)cc3)CC2)C1 [Navitoclax] (partner 0.5 µM)
Outline: as §1

JZL-184 + Alpelisib = compound: C1CN(CCC1C(C2=CC3=C(C=C2)OCO3)(C4=CC5=C(C=C4)OCO5)O)C(=O)OC6=CC=C(C=C6)[N+](=O)[O-] [JZL-184] + Cc1nc(NC(=O)N2CCC[C@H]2C(N)=O)sc1-c1ccnc(C(C)(C)C(F)(F)F)c1 [Alpelisib] (partner 2 µM)
Outline: as §1

JZL-184 + Crizotinib = compound: C1CN(CCC1C(C2=CC3=C(C=C2)OCO3)(C4=CC5=C(C=C4)OCO5)O)C(=O)OC6=CC=C(C=C6)[N+](=O)[O-] [JZL-184] + C[C@@H](Oc1cc(-c2cnn(C3CCNCC3)c2)cnc1N)c1c(Cl)ccc(F)c1Cl [Crizotinib] (partner 1 µM)
Outline: as §1

JZL-184 = compound: C1CN(CCC1C(C2=CC3=C(C=C2)OCO3)(C4=CC5=C(C=C4)OCO5)O)C(=O)OC6=CC=C(C=C6)[N+](=O)[O-] [JZL-184]
Outline: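 For viability, nuclei in each treated well were divided by nuclei in vehicle wells and the median across plates was taken. Lung cancer cell lines in 1536-well plates were pinned with five library-drug doses (not always all listed) spaced by √10, cultured 5 days without medium change, and imaged at 4× after Hoechst staining, with plates passing only at control CV below 25% and at least one doubling.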

NCI-H1299 gave a relative viability (JZL-184 + Pictilisib; first compound 0.04 µM) of 0.922, a relative viability (JZL-184 + Pictilisib; first compound 0.4 µM) of 0.82 and a relative viability (JZL-184 + Pictilisib; first compound 1.265 µM) of 0.779. The relative viability (JZL-184 + Pictilisib; first compound 4 µM) was 0.655, the relative viability (JZL-184 + Lapatinib; first compound 0.04 µM) was 0.954 and the relative viability (JZL-184 + Lapatinib; first compound 0.4 µM) was 0.924. It also gave a relative viability (JZL-184 + Lapatinib; first compound 1.265 µM) of 0.969, a relative viability (JZL-184 + Lapatinib; first compound 4 µM) of 0.912 and a relative viability (JZL-184 + Foretinib; first compound 0.04 µM) of 1.11. It also gave a relative viability (JZL-184 + Foretinib; first compound 0.4 µM) of 1.06, a relative viability (JZL-184 + Foretinib; first compound 1.265 µM) of 1.14 and a relative viability (JZL-184 + Foretinib; first compound 4 µM) of 1.04. The relative viability (JZL-184 + Bortezomib; first compound 0.04 µM) was 1.04, the relative viability (JZL-184 + Bortezomib; first compound 0.4 µM) was 0.997 and the relative viability (JZL-184 + Bortezomib; first compound 1.265 µM) was 1.04. The relative viability (JZL-184 + Bortezomib; first compound 4 µM) was 0.979, the relative viability (JZL-184 + Linsitinib; first compound 0.04 µM) was 1.16 and the relative viability (JZL-184 + Linsitinib; first compound 0.4 µM) was 1.01. It also gave a relative viability (JZL-184 + Linsitinib; first compound 1.265 µM) of 0.95, a relative viability (JZL-184 + Linsitinib; first compound 4 µM) of 0.974 and a relative viability (JZL-184 + Olaparib; first compound 0.04 µM) of 1.01. It also gave a relative viability (JZL-184 + Olaparib; first compound 0.4 µM) of 0.937, a relative viability (JZL-184 + Olaparib; first compound 1.265 µM) of 0.936 and a relative viability (JZL-184 + Olaparib; first compound 4 µM) of 0.911. The relative viability (JZL-184 + Navitoclax; first compound 0.04 µM) was 1.06, the relative viability (JZL-184 + Navitoclax; first compound 0.4 µM) was 1.05 and the relative viability (JZL-184 + Navitoclax; first compound 1.265 µM) was 1.06. It also gave a relative viability (JZL-184 + Navitoclax; first compound 4 µM) of 1.05, a relative viability (JZL-184 + Alpelisib; first compound 0.04 µM) of 1.14 and a relative viability (JZL-184 + Alpelisib; first compound 0.4 µM) of 1.01. It also gave a relative viability (JZL-184 + Alpelisib; first compound 1.265 µM) of 1.08, a relative viability (JZL-184 + Alpelisib; first compound 4 µM) of 1.04 and a relative viability (JZL-184 + Crizotinib; first compound 0.04 µM) of 0.982. The relative viability (JZL-184 + Crizotinib; first compound 0.4 µM) was 0.944, the relative viability (JZL-184 + Crizotinib; first compound 1.265 µM) was 0.915 and the relative viability (JZL-184 + Crizotinib; first compound 4 µM) was 0.884. The relative viability (JZL-184; 0.04 µM) was 1.06, the relative viability (JZL-184; 0.4 µM) was 1 and the relative viability (JZL-184; 1.265 µM) was 1.05. The relative viability (JZL-184; 4 µM) was 0.977.
